Measurements taken from patent US10189820.

Details: amide bond; 22-membered ring; HATU/DIEA; NMP; 68.9 mM; 140.0 °C; 2 steps

8-ethyl-10,18,30-trimethyl-7,20-dioxo-7,8,11,12,13,14,15,20,21,28,29,30,31,32-tetradecahydro-benzo[4,5]imidazo[2,1-b]benzo[4,5]imidazo[1,2-i]dipyrazolo[5,1-m:4′,3′-t][1,3,6,9,11,14]hexaazacyclodocosine-3,24-dicarboxamide
ring closure, yield after HPLC: 4.56%
